In PMC4728427, “Mechanism of allosteric activation of TMEM16A/ANO1 channels by a commonly used chloride channel blocker” (British Journal of Pharmacology, 2016):
Read-outs that look alike come from different tables or passages of the source.

Target: T1, Mouse TMEM16A (Mus musculus, UniProt Q8BHY3)
T1 construct: expressed in transfected cells; host or cells: HEK-293T
T1 sequence (Q8BHY3 1-960): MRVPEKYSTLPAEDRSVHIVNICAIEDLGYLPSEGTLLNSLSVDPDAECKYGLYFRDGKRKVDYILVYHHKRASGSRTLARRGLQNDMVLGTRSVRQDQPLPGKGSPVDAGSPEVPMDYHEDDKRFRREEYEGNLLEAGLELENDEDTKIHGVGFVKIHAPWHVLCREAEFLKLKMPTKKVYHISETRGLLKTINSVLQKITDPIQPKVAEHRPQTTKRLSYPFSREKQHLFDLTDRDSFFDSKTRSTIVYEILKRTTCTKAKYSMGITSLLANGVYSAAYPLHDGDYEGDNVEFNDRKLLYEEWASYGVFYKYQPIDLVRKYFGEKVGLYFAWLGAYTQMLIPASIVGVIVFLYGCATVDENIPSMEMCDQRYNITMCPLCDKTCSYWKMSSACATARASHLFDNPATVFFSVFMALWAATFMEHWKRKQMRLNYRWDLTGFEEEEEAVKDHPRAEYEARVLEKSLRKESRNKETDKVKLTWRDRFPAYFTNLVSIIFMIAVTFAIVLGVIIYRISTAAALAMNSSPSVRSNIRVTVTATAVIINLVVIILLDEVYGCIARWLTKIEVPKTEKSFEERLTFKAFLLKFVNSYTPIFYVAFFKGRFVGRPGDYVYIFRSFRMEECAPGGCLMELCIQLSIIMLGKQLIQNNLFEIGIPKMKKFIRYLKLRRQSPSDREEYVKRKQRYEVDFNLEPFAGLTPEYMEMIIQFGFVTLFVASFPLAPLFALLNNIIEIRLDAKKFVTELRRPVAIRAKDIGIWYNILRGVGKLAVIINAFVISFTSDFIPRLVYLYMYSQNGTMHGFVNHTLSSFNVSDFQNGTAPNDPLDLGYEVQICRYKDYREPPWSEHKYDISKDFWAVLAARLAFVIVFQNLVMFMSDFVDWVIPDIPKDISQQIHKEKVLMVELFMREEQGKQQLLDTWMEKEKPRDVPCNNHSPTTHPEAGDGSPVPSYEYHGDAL
Assay: Whole-cell [A9C]ext-inhibition relationship (Hill and Woodhull fits), 12.5 μM [Ca2+]i
Type: cell-based
Procedure: Mouse TMEM16A (GenBank NM_178642) subcloned into pcDNA3.1 vector was used in this study (Alexander et al., 2013). HEK‐293T cells were cultured as previously described (Smith et al., 2013) and transfected with 0.5–1 μg of TMEM16A and 0.1 μg of CD8 constructs using Fugene HD (Promega, Madison, WI, USA) according to the manufacturer's instructions. Cells were used ~12–36 h after transfection. Transfected cells were visualized using the anti‐CD8 antibody‐coated beads method (Jurman et al., 1994).
The intracellular solution contained (mM) 130 CsCl, 10 EGTA, 1 MgCl2, 10 HEPES and 8 CaCl2 to obtain ~300 nM of [Ca^2+]i; pH was adjusted to 7.3 with NaOH. The intracellular solutions containing ~600 nM, ~1000 nM and ~12.5 μM [Ca^2+]i were obtained by replacing EGTA with equimolar H‐EDTA and by adding 2.1, 3.1 and 7.8 mM CaCl2 respectively. The extracellular solution contained (mM) 150 NaCl, 1 CaCl2, 1 MgCl2, 10 glucose, 10 D‐mannitol and 10 HEPES; pH was adjusted to 7.4 with NaOH. […] A9C was dissolved in DMSO (stock concentration, 300 mM); thus, the final concentration of DMSO was ≤1%. Aliquots of the stock solution were kept at −20° and used within 5 days.
The relationship between [A9C] and TMEM16A current inhibition was obtained by measuring the currents at the end of 250 ms V m steps from +20 to +120 mV in 20 mV increments elicited every 2 s from a holding V m of −70 mV. TMEM16A currents measured in the presence of A9C (I b) were normalized to currents measured in the absence of A9C (I 0) and plotted against [A9C]. The concentration–response curves obtained were fit with the Hill equation of the form: (1) Ib/Io=1/1+A9C/Ki^γ,
where K i is the apparent A9C dissociation constant from the inhibitory site and γ is the coefficient of cooperativity (Hill coefficient).
The relationships between the K i or K d and V m were fitted with the Woodhull equation (Woodhull, 1973): (3) Kx=Kx0exp−δxzFVm/RT.
The subscript ‘x’ stands for either ‘i’ or ‘d’. Thus, K i(0) or K d(0) are the apparent A9C dissociation constants from the inhibitory or activating site at 0 mV, z is the A9C electric valence (−1), δ i or δ d is the fraction of the V m sensed by A9C when bound to the inhibitory or activating site, F is Faraday's constant, R is the universal gas constant and T is the absolute temperature.
To investigate the precise mechanism by which extracellular A9C inhibits TMEM16A channels, macroscopic whole‐cell currents were recorded in the presence of 12.5 μM [Ca^2+]i and in response to 250 ms steps to various V m test pulse from a holding V m of −70 mV. The negative holding V m was used to prevent channel block before the test pulse was elicited. […] The time‐course of this decrease was described by a single‐exponential function characterized by a time constant τ B. The extent of the decrease in current was measured for various [A9C]ext and various V m test pulse and then plotted relative to the current measured in the absence of A9C (I 0) (Figure 3B). The γ values were close to 1 at each V m. In contrast, K i decreased as the V m was increased (Figure 3C). […] Thus, A9C appeared to block TMEM16A channels according to a Woodhull mechanism, consistent with a single A9C molecule blocking the channel pore.

SMILES: O=C(O)c1c2ccccc2cc2ccccc12 [A9C, Anthracene‐9‐carboxylic acid]
- Ki (12.5 μM [Ca2+]i (rounded in Discussion), read-out: K i(0)): ~300 µM
- δ i (fraction of Vm sensed at inhibitory site, Woodhull fit) (12.5 μM [Ca2+]i, extracellular A9C): 0.62 ± 0.03
- Ki (12.5 μM [Ca2+]i, extracellular A9C, read-out: K i(0) (apparent dissociation constant from inhibitory site at 0 mV)): 322 ± 13 µM
- Ki (+80 mV, mouse TMEM16A (rounded in Discussion), read-out: K i): ~50 µM
- γ (slope factor, inhibition) (V m 20, 12.5 μM [Ca2+]i): 0.86 ± 0.14 (n = 8)
- Ki (V m 20, 12.5 μM [Ca2+]i, [A9C]ext, unit inferred, read-out: K i (Hill fit of inhibition)): 198 ± 47 µM
- γ (slope factor, inhibition) (V m 40, 12.5 μM [Ca2+]i): 0.85 ± 0.15 (n = 8)
- Ki (V m 40, 12.5 μM [Ca2+]i, [A9C]ext, unit inferred, read-out: K i (Hill fit of inhibition)): 113 ± 26 µM
- γ (slope factor, inhibition) (V m 60, 12.5 μM [Ca2+]i): 0.8 ± 0.2 (n = 8)
- Ki (V m 60, 12.5 μM [Ca2+]i, [A9C]ext, unit inferred, read-out: K i (Hill fit of inhibition)): 68 ± 20 µM
- γ (slope factor, inhibition) (V m 80, 12.5 μM [Ca2+]i): 0.8 ± 0.17 (n = 8)
- Ki (V m 80, 12.5 μM [Ca2+]i, [A9C]ext, unit inferred, read-out: K i (Hill fit of inhibition)): 44 ± 10 µM
- γ (slope factor, inhibition) (V m 100, 12.5 μM [Ca2+]i): 0.8 ± 0.23 (n = 8)
- Ki (V m 100, 12.5 μM [Ca2+]i, [A9C]ext, unit inferred, read-out: K i (Hill fit of inhibition)): 31 ± 12 µM
- γ (slope factor, inhibition) (V m 120, 12.5 μM [Ca2+]i): 0.71 ± 0.16 (n = 8)
- Ki (V m 120, 12.5 μM [Ca2+]i, [A9C]ext, unit inferred, read-out: K i (Hill fit of inhibition)): 20 ± 8 µM
- electric distance of inhibiting binding site (δ i) (Woodhull analysis, rounded): ~ 0.6
- penetration into the pore length (voltage field) to reach inhibitory site (from δ i): approximately 60%
- γ from Hill fit of [A9C]ext-inhibition relationships (rounded in Discussion): ≈ 1
